For data set [1] the following is noted: cited from earlier work; for Function in study: training data set, as defined by available literature and expert consensus; for True group: true group belonging of external test chemicals.
Data set [2] relates to SenzaCell. Kind of data set: GARDair assay: gene expression signature (GRPS, 28 genes) of chemically exposed DC-like cells, SVM classification. The conditions noted are these: finalized GARDair prediction model; RS if mean SVM decision value (n=3) > 0; 24 h exposure at GARD input concentration.
Experimental: (§1) All exposures were performed in repeated triplicate experiments in a controlled setting, thus generating a coherent dataset with high statistical power optimized for subsequent biomarker discovery.
(§2) A prediction model was trained and frozen, based on a Support Vector Machine (SVM), using the samples of the training data set with a binary “function in study” (respiratory sensitizer/non-respiratory sensitizer) as the dependent variable, and the gene expression values of the GRPS as the independent variables (i.e. predictors), see also Table 4.
(§3) Having established an optimized prediction model and associated protocols, the assay was challenged with two sets of external samples, referred to as test data sets.
(§4) The human myeloid leukemia-derived cell line SenzaCell (available through ATCC), acting as an in vitro model of human Dendritic Cell (DC), is maintained in a-MEM (Thermo Scientific Hyclone, Logan, Utah) supplemented with 20% (volume/volume) fetal calf serum (Life Technologies, Carlsbad, Calif.) and 40 ng/ml recombinant human Granulocyte Macrophage Colony Stimulating Factor (rhGM-CSF) (Miltenyi Biotec, Germany). A media change during expansion is performed every 3-4 days. Working stocks of cultures are grown for a maximum of 16 passages or two months after thawing. For chemical stimulation of cells, exposed cells are incubated for 24 h at 37° C., 5% CO2 and 95% humidity.
(§5) Some Test Substances were poorly dissolved in cell media; therefore, the maximum soluble concentration was assessed as well. The Test Substance that was to be tested was titrated to concentrations ranging from 1 μM to the maximum soluble concentration in cell media. For freely soluble Test Substances, 500 μM was set as the upper limit of the titration range. For Test Substances dissolved in DMSO, the in-well concentration of DMSO was 0.1%. After incubation for 24 h at 37° C., 5% CO2 and 95% humidity, harvested cells were stained with the viability marker Propidium Iodide (PI) (BD Bioscience, USA) and analyzed by flow cytometry. PI-negative cells were defined as viable, and the relative viability of cells stimulated with each concentration in the titration range was calculated as
(§6) For non-toxic Test Substances, a concentration of 500 μM was used if possible. For non-toxic Test Substances that were insoluble at 500 μM in cell media, the highest soluble concentration was used. Whichever of these three criteria was met, only one concentration will be used for gene expression analysis. The concentration to be used for any given chemical was termed the ‘GARD input concentration’.
(§7) Once the GARD input concentration for Test Substances to be assayed was established, the cells were stimulated again as described above, this time only using the GARD input concentration. All assessments of Test Substances and Benchmark Controls were assayed in biological triplicates, performed at different time-points and using different cell cultures. After incubation for 24 h at 37° C., 5% CO2 and 95% humidity, cell culture was lysed in TRlzol reagent (Life Technologies) and stored at −20° C. until RNA was extracted. In parallel, a small sample of stimulated cells was taken for PI staining and analysis with flow cytometry, to ensure the expected relative viability of stimulated cells was reached.
For data set [3], the system named is SenzaCell.
Experimental: as §1, §2, §3, §4, §5, §6, §7

Where two headings read alike, the source gives them in different places.

Regarding `Nc1ccccc1O` [2-aminophenol], the Function in study entry in data set [1] is listed as “SS/NRS”.

Turning to `O=C(O)c1ccc(O)cc1` [4-Hydroxybenzoic acid], the “Prediction Test set 1” value in the data set with SenzaCell [2] is “NRS”. Besides, the True group entry in data set [1] was “NRS”.

Consider `O=C(O)c1ccccc1O` [Salicylic acid], for which, in data set [1], the True group entry is on record as “NRS”.

On to `CCOC(=O)c1ccccc1C(=O)OCC` [Diethyl phthalate], for which, in the data set on SenzaCell [2], the “Prediction Test set 1” value was “NRS”. Moreover, in data set [1], the True group entry was “NRS”.

On to `CCCCCCCCCCCCOS(=O)(=O)[O-].[Na+]` [SDS], for which the “Prediction Test set 1” value in the data set on SenzaCell [2] is “NRS”. For the same compound, the True group entry in data set [1] is recorded as “NRS”.

On to `Oc1ccccc1` [Phenol], for which, in the data set with SenzaCell [3], the “Prediction Test set 1” value was “NRS”.

As for `Clc1ccccc1` [chlorobenzene], the “Prediction Test set 2” value in the data set with SenzaCell [2] is given as “NRS”.

`O=[N+]([O-])c1ccc(Cl)c([N+](=O)[O-])c1` [DNCB]: in the data set on SenzaCell [2], the “Prediction Test set 1” value is given as “NRS” and the “Prediction Test set 2” value is “NRS”. The True group result in data set [1] is “NRS”.

In the case of `OCC=Cc1ccccc1` [Cinnamyl alcohol], the “Prediction Test set 1” value in the data set with SenzaCell [2] is “NRS”. Moreover, the True group entry in data set [1] is on record as “NRS”.

As for `CCCCCCC(C=O)=Cc1ccccc1` [hexylcinnamic aldehyde], the Function in study entry in data set [1] was “SS/NRS”.

`CC1(C)S[C@@H]2[C@H](NC(=O)Cc3ccccc3)C(=O)N2[C@H]1C(=O)O` [penicillin G]: the Function in study result in data set [1] is on record as “SS/NRS”.

`CCCCCCCC(=O)O` [Octanoic acid]: the “Prediction Test set 1” value with SenzaCell [2] was “NRS”. Besides, the True group result in data set [1] is on record as “NRS”.

Take `Oc1cccc(O)c1` [Resorcinol]: the “Prediction Test set 1” value in the data set with SenzaCell [2] is listed as “NRS”.

As to `C=CCc1ccc(O)c(OC)c1` [Eugenol], the “Prediction Test set 1” value in the data set on SenzaCell [2] was “NRS”. Also, the True group entry in data set [1] is reported as “NRS”.

For `[K+].[K+].[O]=[Cr](=[O])([O-])[O][Cr](=[O])(=[O])[O-]` [potassium dichromate], in data set [1], the Function in study entry is listed as “SS/NRS”.

Consider `C[S+](C)[O-]` [DMSO], for which the “Prediction Test set 2” value in the data set with SenzaCell [2] is “NRS”. In addition, in data set [1], the True group entry is reported as “NRS”.

As to `Nc1ccc(N)cc1` [PPD], in the data set on SenzaCell [2], the “Prediction Test set 1” value was “NRS” and the “Prediction Test set 2” value is “NRS”. The True group entry in data set [1] is on record as “NRS”.

Turning to `O=Cc1ccccc1` [Benzaldehyde], the “Prediction Test set 1” value in the data set with SenzaCell [2] is recorded as “NRS”.

Regarding `OCC(O)CO` [Glycerol], in the data set with SenzaCell [2], the “Prediction Test set 1” value is “NRS”.

In the case of `CC=Cc1ccc(O)c(OC)c1` [Isoeugenol], the “Prediction Test set 1” value in the data set with SenzaCell [2] is reported as “NRS”. The True group entry in data set [1] is given as “NRS”.

As to `Sc1nc2ccccc2s1` [2-Mercaptobenzothiazole], the True group result in data set [1] is given as “NRS”.
